Measured values: patent US8969356B2, “Compounds useful as inhibitors of ATR kinase” (Vertex Pharmaceuticals Incorporated, priority 2010, dated 2015)

Experiments:
ATR kinase = target: T1, ATR kinase (Homo sapiens, UniProt Q13535); assay: ATR Inhibition Assay (radioactive-phosphate incorporation); assay type: biochemical
T1 construct: Assays were carried out at 25° C. in the presence of 5 nM full-length ATR
Procedure: Compounds were screened for their ability to inhibit ATR kinase using a radioactive-phosphate incorporation assay. Assays were carried out in a mixture of 50 mM Tris/HCl (pH 7.5), 10 mM MgCl2 and 1 mM DTT. Final substrate concentrations were 10 μM [γ-33P]ATP (3mCi 33P ATP/mmol ATP, Perkin Elmer) and 800 μM target peptide ([…] (SEQ. ID NO: 1)).
Assays were carried out at 25° C. in the presence of 5 nM full-length ATR. An assay stock buffer solution was prepared containing all of the reagents listed above, with the exception of ATP and the test compound of interest. 13.5 μL of the stock solution was placed in a 96 well plate followed by addition of 2 μL of DMSO stock containing serial dilutions of the test compound (typically starting from a final concentration of 15 μM with 3-fold serial dilutions) in duplicate (final DMSO concentration 7%). The plate was pre-incubated for 10 minutes at 25° C. and the reaction initiated by addition of 15 μL [γ-33P]ATP (final concentration 10 μM).
The reaction was stopped after […] by the addition of 30 μL 0.1M phosphoric acid containing 2 mM ATP. A multiscreen phosphocellulose filter 96-well plate (Millipore, Cat no. MAPHN0B50) was pretreated with 100 μL 0.2M phosphoric acid prior to the addition of 45 μL of the stopped assay mixture. The plate was washed with 5×200 μL 0.2M phosphoric acid. After drying, 100 μL Optiphase ‘SuperMix’ liquid scintillation cocktail (Perkin Elmer) was added to the well prior to scintillation counting (1450 Microbeta Liquid Scintillation Counter, Wallac).
After removing mean background values for all of the data points, Ki(app) data were calculated from non-linear regression analysis of the initial rate data using the Prism software package (GraphPad Prism version 3.0cx for Macintosh, GraphPad Software, San Diego Calif., USA).

[1] = test system: HCT116 colorectal cancer cells; assay: Cisplatin Sensitization Assay (96 h cell viability MTS); assay type: cell-based; conditions: concentration of compound required to reduce the IC50 of Cisplatin alone by at least 3-fold; HCT116, 96 h MTS
Procedure: Compounds can be screened for their ability to sensitize HCT116 colorectal cancer cells to Cisplatin using a 96 h cell viability (MTS) assay. […] Compounds and Cisplatin are then both added simultaneously to the cell media in 2-fold serial dilutions from a top final concentration of 10 μM as a full matrix of concentrations in a final cell volume of 200 μl, and the cells are then incubated at 37° C. in 5% CO2. After 96 h, 40 μl of MTS reagent (Promega G358a) is added to each well and the cells are incubated for 1 h at 37° C. in 5% CO2.

T1 sequence (Q13535 whole entry): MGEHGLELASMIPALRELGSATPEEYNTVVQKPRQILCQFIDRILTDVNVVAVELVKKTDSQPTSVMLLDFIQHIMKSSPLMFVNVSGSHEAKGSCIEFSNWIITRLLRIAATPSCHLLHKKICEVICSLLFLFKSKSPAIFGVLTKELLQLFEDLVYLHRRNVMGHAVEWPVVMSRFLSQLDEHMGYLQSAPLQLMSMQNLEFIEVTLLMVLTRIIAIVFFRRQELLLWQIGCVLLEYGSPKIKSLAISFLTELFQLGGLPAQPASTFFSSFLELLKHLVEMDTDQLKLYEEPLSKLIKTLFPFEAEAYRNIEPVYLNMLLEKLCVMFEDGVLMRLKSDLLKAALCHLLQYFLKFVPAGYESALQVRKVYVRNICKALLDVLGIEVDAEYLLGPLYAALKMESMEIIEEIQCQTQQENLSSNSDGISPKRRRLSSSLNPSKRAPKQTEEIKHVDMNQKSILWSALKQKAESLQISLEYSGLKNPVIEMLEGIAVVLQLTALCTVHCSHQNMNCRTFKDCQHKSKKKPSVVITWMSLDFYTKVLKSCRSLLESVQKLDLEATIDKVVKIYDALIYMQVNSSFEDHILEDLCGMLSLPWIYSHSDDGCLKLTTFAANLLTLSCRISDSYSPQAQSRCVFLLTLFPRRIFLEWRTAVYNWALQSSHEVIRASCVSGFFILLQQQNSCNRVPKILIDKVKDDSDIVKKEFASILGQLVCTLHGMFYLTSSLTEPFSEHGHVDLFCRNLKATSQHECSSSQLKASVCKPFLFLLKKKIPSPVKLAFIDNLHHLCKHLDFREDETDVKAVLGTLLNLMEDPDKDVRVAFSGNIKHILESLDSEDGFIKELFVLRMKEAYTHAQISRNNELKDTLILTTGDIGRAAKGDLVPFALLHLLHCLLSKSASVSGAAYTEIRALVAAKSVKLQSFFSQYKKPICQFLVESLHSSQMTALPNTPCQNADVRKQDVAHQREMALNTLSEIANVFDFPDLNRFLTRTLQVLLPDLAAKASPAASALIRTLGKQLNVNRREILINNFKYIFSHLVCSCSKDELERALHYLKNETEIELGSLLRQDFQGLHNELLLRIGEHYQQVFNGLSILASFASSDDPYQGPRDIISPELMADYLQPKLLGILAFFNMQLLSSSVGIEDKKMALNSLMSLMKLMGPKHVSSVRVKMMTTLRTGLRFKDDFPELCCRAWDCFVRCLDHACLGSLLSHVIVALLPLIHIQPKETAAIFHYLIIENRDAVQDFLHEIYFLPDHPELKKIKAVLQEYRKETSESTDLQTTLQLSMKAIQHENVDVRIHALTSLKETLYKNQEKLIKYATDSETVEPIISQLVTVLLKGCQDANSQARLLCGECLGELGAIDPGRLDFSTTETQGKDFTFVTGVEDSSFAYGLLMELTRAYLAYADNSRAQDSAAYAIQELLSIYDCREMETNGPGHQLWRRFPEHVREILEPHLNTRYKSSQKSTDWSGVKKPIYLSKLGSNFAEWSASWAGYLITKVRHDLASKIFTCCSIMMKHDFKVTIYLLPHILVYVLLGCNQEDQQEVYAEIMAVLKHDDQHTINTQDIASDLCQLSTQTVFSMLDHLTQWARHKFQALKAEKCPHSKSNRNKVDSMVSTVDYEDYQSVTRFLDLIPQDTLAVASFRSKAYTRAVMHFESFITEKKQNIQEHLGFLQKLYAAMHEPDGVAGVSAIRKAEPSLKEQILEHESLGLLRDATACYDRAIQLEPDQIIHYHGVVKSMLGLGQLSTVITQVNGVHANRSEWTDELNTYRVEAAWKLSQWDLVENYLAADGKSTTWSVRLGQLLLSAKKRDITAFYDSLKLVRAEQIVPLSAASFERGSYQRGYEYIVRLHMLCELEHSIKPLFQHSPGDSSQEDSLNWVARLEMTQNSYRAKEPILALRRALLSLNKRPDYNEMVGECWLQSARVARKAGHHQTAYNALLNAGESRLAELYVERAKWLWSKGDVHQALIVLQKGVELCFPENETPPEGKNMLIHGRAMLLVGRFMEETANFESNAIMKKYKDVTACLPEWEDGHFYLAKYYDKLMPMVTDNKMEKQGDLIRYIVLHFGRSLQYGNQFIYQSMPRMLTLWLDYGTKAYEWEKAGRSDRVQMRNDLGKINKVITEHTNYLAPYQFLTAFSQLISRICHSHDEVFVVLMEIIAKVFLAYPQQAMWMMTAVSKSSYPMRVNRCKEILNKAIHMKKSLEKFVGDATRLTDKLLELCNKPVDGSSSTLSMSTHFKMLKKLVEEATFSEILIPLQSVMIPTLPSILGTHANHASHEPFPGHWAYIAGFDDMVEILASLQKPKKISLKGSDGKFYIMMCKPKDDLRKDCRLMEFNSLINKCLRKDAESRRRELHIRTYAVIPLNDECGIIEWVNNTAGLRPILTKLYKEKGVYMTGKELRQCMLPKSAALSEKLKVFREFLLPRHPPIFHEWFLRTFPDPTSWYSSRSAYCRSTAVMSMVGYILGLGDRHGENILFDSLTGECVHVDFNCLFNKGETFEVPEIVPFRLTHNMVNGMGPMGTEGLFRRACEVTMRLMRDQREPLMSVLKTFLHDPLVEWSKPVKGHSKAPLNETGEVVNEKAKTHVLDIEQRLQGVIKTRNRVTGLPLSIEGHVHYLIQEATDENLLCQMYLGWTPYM

Structure (SMILES)	Ki (ATR kinase) [µM]	CP3 Shift [1] [µM]
Nc1ncc(-c2ccc(S(=O)(=O)C3CCOCC3)cc2)nc1C#Cc1cccc(O)c1 [Compound I-34, 3-[2-[3-Amino-6-(4-tetrahydropyran-4-ylsulfonylphenyl)pyrazin-2-yl]ethynyl]phenol]	≤ 0.1	0.079
CC(C)S(=O)(=O)c1ccc(-c2cnc(N)c(C#Cc3cccc(O)c3)n2)cc1 [Compound I-35, 3-[2-[3-Amino-6-(4-isopropylsulfonylphenyl)pyrazin-2-yl]ethynyl]phenol]	≤ 0.1	0.118
CC(C)S(=O)(=O)c1ccc(-c2cnc(N)c(C#Cc3ccccc3)n2)cc1 [Compound I-7, 5-(4-Isopropylsulfonylphenyl)-3-(2-phenylethynyl)pyrazin-2-amine]	≤ 0.1	2.5
CC(C)S(=O)(=O)c1ccc(-c2cnc(N)c(C#Cc3cccs3)n2)cc1 [Compound I-22, 5-(4-Isopropylsulfonylphenyl)-3-[2-(2-thienyl)ethynyl]pyrazin-2-amine]	≤ 0.1	1.25
CC(C)S(=O)(=O)c1ccc(-c2cnc(N)c(C#Cc3cccc(N)c3)n2)cc1 [Compound I-21, 3-[2-(3-Aminophenyl)ethynyl]-5-(4-isopropylsulfonylphenyl)pyrazin-2-amine]	≤ 0.1	0.312
CC(C)S(=O)(=O)c1ccc(-c2cnc(N)c(C#Cc3ccccn3)n2)cc1 [Compound I-33, 5-(4-Isopropylsulfonylphenyl)-3-[2-(2-pyridyl)ethynyl]pyrazin-2-amine]	≤ 0.1	2.5
CC(C)S(=O)(=O)c1ccc(-c2cnc(N)c(C#Cc3ccccc3F)n2)cc1 [Compound I-40, 3-((2-fluorophenyl)ethynyl)-5-(4-(isopropylsulfonyl)phenyl)pyrazin-2-amine]	≤ 0.1	2.5
CC(C)S(=O)(=O)c1ccc(-c2cnc(N)c(C#CC3CCCCC3)n2)cc1 [Compound I-8, 3-(2-Cyclohexylethynyl)-5-(4-isopropylsulfonylphenyl)pyrazin-2-amine]	0.1 to 1	
CC(C)S(=O)(=O)c1ccc(-c2cnc(N)c(C#Cc3cccc(OCCCN(C)C)c3)n2)cc1 [Compound I-20, 3-[2-[3-[3-(Dimethylamino)propoxy]phenyl]ethynyl]-5-(4-isopropylsulfonylphenyl)pyrazin-2-amine]	≤ 0.1	
Nc1ncc(-c2ccc(S(=O)(=O)C3CCNCC3)cc2)nc1C#Cc1cccc(O)c1 [Compound I-17, 3-[2-[3-Amino-6-[4-(4-piperidylsulfonyl)phenyl]pyrazin-2-yl]ethynyl]phenol]	≤ 0.1	
CC(C)S(=O)(=O)c1ccc(-c2cnc(N)c(C#Cc3cccc4[nH]ncc34)n2)cc1 [Compound I-44, 3-((1H-indazol-4-yl)ethynyl)-5-(4-(isopropylsulfonyl)phenyl)pyrazin-2-amine]	≤ 0.1	
CC(C)S(=O)(=O)c1ccc(-c2cnc(N)c(C#C[C@@H](C)O)n2)cc1 [Compound I-4, (2R)-4-[3-Amino-6-(4-isopropylsulfonylphenyl)pyrazin-2-yl]but-3-yn-2-ol]	0.1 to 1	
